Source: patent publication US10640802B2 (priority 2012, dated 2020)

System: Acidithiobacillus ferrooxidans AfArsR variant C102S (biosensor co-cultured with Burkholderia sp. MR1)
Type: cell-based

| SMILES | response of co-cultured biosensor |
| --- | --- |
| O=[As](O)(O)c1ccccc1 [PAA, phenylarsonic acid] | it didn't |
| O=[N+]([O-])c1cc([As](=O)(O)O)ccc1O [Rox(V), 4-hydroxy-3-nitrobenzenearsonic acid] | it didn't |
